Assays:
[1] = Clearance in Wistar Han rat at 0.5 mg/kg, iv LC-MS/MS method; format: ADME, organism-based; details: in vivo
[2] = target: T1, Glucose-dependent insulinotropic receptor (Mus musculus, UniProt Q7TQP3); assay: Agonist activity at mouse GPR119 by cAMP assay; format: functional
T1 sequence (Q7TQP3 whole entry): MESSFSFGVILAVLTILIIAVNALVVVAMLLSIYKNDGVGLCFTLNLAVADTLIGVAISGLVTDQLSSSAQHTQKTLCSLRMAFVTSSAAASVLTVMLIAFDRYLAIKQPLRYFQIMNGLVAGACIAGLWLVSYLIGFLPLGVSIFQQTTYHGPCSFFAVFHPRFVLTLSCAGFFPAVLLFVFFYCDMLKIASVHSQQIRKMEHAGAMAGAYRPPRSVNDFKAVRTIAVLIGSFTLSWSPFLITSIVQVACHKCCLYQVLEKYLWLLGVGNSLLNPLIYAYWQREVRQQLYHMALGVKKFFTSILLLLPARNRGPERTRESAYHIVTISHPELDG

[3] = target: T2, Glucose-dependent insulinotropic receptor (Homo sapiens) (UniProt Q8TDV5); assay: Agonist activity at human GPR119 by cAMP assay relative to control; format: functional; design: concentration or dose not given beside the values
T2 sequence (whole entry): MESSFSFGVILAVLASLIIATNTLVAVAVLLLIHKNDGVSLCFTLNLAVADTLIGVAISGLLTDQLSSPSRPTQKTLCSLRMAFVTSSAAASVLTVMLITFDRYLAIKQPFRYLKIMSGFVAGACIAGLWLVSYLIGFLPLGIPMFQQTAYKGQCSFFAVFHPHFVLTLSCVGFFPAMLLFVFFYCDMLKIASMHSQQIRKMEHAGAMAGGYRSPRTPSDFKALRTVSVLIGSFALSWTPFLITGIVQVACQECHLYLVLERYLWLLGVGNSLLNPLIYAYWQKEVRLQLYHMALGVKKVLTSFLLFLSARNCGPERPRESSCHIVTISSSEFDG

[4] = Half life in Wistar Han rat at 0.5 mg/kg, iv LC-MS/MS method; format: ADME, organism-based; details: Wistar Han, in vivo
[5] = target: T3, Glucose-dependent insulinotropic receptor (Mus musculus) (UniProt Q7TQP3); assay: Agonist activity at mouse GPR119 by cAMP assay relative to control; format: functional; design: concentration or dose not given beside the values
T3 sequence (whole entry): T1 sequence (Q7TQP3 whole entry)

[6] = Fraction unbound in rat plasma; format: ADME, cell-free
[7] = Volume of distribution in Wistar Han rat at 0.5 mg/kg, iv LC-MS/MS method; format: ADME, organism-based; details: Wistar Han, in vivo
Rattus norvegicus = assay: Unbound volume of distribution in Wistar Han rat at 0.5 mg/kg, iv LC-MS/MS method; format: ADME, organism-based; details: in vivo
[8] = Lipophilicity, logD of the compound at pH 7 by HPLC method; format: physicochemical; details: buffer
[9] = target: T4, Glucose-dependent insulinotropic receptor (Homo sapiens, UniProt Q8TDV5); assay: Agonist activity at human GPR119 expressed in CHO cells by cAMP assay; format: functional, cell-based
T4 sequence (Q8TDV5 whole entry): T2 sequence (whole entry)

[10] = Intrinsic clearance in rat liver microsomes; format: ADME; details: read-out: CLH

clearance [1]: 9 mL/min/kg | EC50 [2]: 3.6 nM | Activity [3]: 53% | half-life [4]: 1.8 h | Activity [5]: 56% | fraction unbound [6]: 0.016 | Vd [7]: 1.3 L/kg | Vdu (Rattus norvegicus): 81 L/kg | logD [8]: 3.7 | EC50 [9]: 8.7 nM | CLint scaled [10]: 553 mL/min/kg
Structure (SMILES): CS(=O)(=O)c1ccc(COC[C@@H]2C[C@@H]2C2CCN(c3ncc(Cl)cn3)CC2)nc1
